Measurements from PMC12172689 (ACS infectious diseases, 2025).
Substitutions are numbered along the chain they refer to.

Columns and labels:
[1] = test system: T. gondii TgMAPKL1 parental strain (RH, β-galactosidase transgene); experiment: T. gondii proliferation inhibition assay, β-galactosidase readout, parent strain; assay type: cell-based, Toxoplasma gondii; conditions: read-out: TgMAPKL1 Parental EC50 (95% CI), β-galactosidase activity, 72 h
[2] = test system: T. gondii with a L162Q substitution in TgMAPKL1; experiment: T. gondii proliferation inhibition assay, β-galactosidase readout, TgMAPKL1 L162Q strain; assay type: cell-based, Toxoplasma gondii; conditions: for Fold Increase EC50: TgMAPKL1 L162Q vs parent strain, β-galactosidase assay; for EC50: read-out: TgMAPKL1 L162Q EC50 (95% CI), TgMAPKL1 L162Q strain, β-galactosidase activity, 72 h
TgCDPK1 128G = target: T1, TgCDPK1 128G (Toxoplasma gondii, UniProt Q9BJF5); experiment: TgCDPK1 enzyme inhibition assay (Kinase Glo), wild type glycine gatekeeper; assay type: biochemical; conditions: read-out: TgCDPK1 128G IC50, 10 μM ATP
T1 sequence (Q9BJF5 1-507): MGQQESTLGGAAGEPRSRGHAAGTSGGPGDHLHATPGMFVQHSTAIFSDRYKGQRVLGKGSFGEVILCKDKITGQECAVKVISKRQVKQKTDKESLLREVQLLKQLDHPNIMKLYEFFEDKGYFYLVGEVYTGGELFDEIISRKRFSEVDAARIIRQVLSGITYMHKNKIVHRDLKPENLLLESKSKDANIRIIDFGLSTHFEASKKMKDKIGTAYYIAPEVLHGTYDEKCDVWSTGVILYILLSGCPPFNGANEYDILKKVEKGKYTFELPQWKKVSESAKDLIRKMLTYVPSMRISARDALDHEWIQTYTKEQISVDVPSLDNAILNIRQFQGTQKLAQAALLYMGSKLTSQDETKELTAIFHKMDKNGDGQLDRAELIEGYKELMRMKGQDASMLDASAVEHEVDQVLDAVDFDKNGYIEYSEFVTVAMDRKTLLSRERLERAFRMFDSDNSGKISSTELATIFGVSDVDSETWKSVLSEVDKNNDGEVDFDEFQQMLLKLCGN

TgCDPK1 128M = target: T2, TgCDPK1 128M (Toxoplasma gondii, UniProt Q9BJF5, G128M); experiment: TgCDPK1 enzyme inhibition assay (Kinase Glo), methionine gatekeeper mutant; assay type: biochemical; conditions: for Fold Increase IC50: TgCDPK1 128M vs 128G; for IC50: read-out: TgCDPK1 128M IC50, introduced methionine gatekeeper, 10 μM ATP
T2 sequence (Q9BJF5 1-507 G128M): T1 sequence (Q9BJF5 1-507) with G128M

T. gondii cell cycle = conditions: cited from earlier work
T. gondii parent strain = experiment: T. gondii proliferation inhibition, remaining host cell nuclei (DAPI), parent strain; assay type: cell-based, Toxoplasma gondii; conditions: read-out: parent EC50 (95% CI), 5 days
T. gondii TgMAPKL1 L162Q = experiment: T. gondii proliferation inhibition, remaining host cell nuclei (DAPI), TgMAPKL1 L162Q strain; assay type: cell-based, Toxoplasma gondii; conditions: for EC50: read-out: TgMAPKL1 L162Q EC50 (95% CI), remaining host cell nuclei, 5 days
T. gondii TgCDPK1 G128M = experiment: T. gondii proliferation inhibition, remaining host cell nuclei (DAPI), TgCDPK1 G128M strain; assay type: cell-based, Toxoplasma gondii
[3] = test system: T. gondii TgCDPK1 G128M TgMAPKL1 L162Q; experiment: T. gondii proliferation inhibition, remaining host cell nuclei (DAPI), double mutant G128M/L162Q; assay type: cell-based, Toxoplasma gondii; conditions: for EC50: read-out: TgCDPK1 G128M TgMAPKL1 L162Q EC50 (95% CI), double mutant, remaining host cell nuclei, 5 days
T. gondii TgMAPKL1 S191Y = conditions: cited from earlier work
T. gondii TgCDPK1 G128T = experiment: T. gondii proliferation inhibition, remaining host cell nuclei (DAPI), TgCDPK1 G128T strain; assay type: cell-based, Toxoplasma gondii; conditions: read-out: TgCDPK1 G128T EC50 (95% CI), 5 days
[4] = test system: RH-strain T. gondii tachyzoites; experiment: Determination of mutagen concentration killing T. gondii tachyzoites; assay type: cell-based, Toxoplasma gondii; conditions: RH-strain tachyzoites expressing β-galactosidase and GFP
[5] = vs parent strain, host cell nuclei assay

CCOc1ccc2cc(-c3nn(C4CCOCC4)c(N)c3C(N)=O)ccc2n1 [BKI-1841]
EC50 [1]: 140 nM | Fold Increase EC50 [2]: 2.90 fold | EC50 [2]: 400 nM | IC50 (TgCDPK1 128G): 30 nM | Fold Increase IC50 (TgCDPK1 128M): 585 fold | IC50 (TgCDPK1 128M): 17600 nM

Cc1cccc(-c2[nH]c(C(C)(C)C)nc2-c2ccc3c(c2)OCO3)n1 [SB505124]
effect on T. gondii cell cycle (T. gondii cell cycle): arrested the T. gondii cell cycle

CC(C)(C)n1nc(Cc2cccc3ccccc23)c2c(N)ncnc21 [1-NM-PP1]
EC50 (T. gondii parent strain): 19 nM | EC50 (T. gondii TgMAPKL1 L162Q): 75 nM | TgMAPKL1 L162Q fold increase EC50 (T. gondii TgMAPKL1 L162Q; [5]): 3.9 fold | TgCDPK1 G128M fold increase EC50 (T. gondii TgCDPK1 G128M; [5]): 7.4 fold | TgCDPK1 G128M TgMAPKL1 L162Q fold increase EC50 ([3]; double mutant vs parent strain, host cell nuclei assay): 89.5 fold | EC50 [3]: 1700 nM | resistance conferred by TgMAPKL1 S191Y substitution (T. gondii TgMAPKL1 S191Y): conferred resistance

CCOc1ccc2cc(-c3nn(CC4CCN(C)CC4)c4ncnc(N)c34)ccc2n1 [BKI-1369]
EC50 [1]: 38 nM | Fold Increase EC50 [2]: 3.20 fold | EC50 [2]: 120 nM | IC50 (TgCDPK1 128G): 6 nM | Fold Increase IC50 (TgCDPK1 128M): 2246 fold | IC50 (TgCDPK1 128M): 13700 nM

CCOc1ccc2cc(-c3nn(CC4CCN(C)CC4)c4ncnc(N)c34)ccc2c1 [BKI-1294]
EC50 [1]: 22 nM | EC50 [2]: 66 nM | EC50 (T. gondii parent strain): 230 nM | EC50 (T. gondii TgMAPKL1 L162Q): 450 nM | EC50 (T. gondii TgCDPK1 G128M; read-out: TgCDPK1 G128M EC50 (95% CI), remaining host cell nuclei, 5 days): 1500 nM | EC50 (T. gondii TgCDPK1 G128T): 1700 nM | EC50 [3]: 3200 nM

CCOc1ccc2cc(-c3nn(C(C)(C)C)c(N)c3C(N)=O)cnc2c1 [BKI-1517]
EC50 [1]: 80 nM | EC50 [2]: 290 nM

CCN(N=O)C(N)=O [ENU, N-ethyl-N-nitrosourea]
concentration required to kill 70% of a population of tachyzoites [4]: 2 mM
